Source: patent publication US9801922B2, “Compositions and methods of treating cancer” (UNIVERSITY OF IOWA RESEARCH FOUNDATION, priority 2011, dated 2017)
Where “and” joins values, the source holds several entries; their conditions need not be identical. Identical values can stand only once.

Columns and labels:
[1] = test system: MDA-MB231 human breast cancer cells; test: Clonogenic cell survival, MDA-MB231; format: cell-based; conditions: for clonogenic cell killing: 100 μM BSO, 1 μM DTPP 24 h, 500 nM AUR 15 min (FIG. 1B)
Description: FIGS. 1A-D: BSO, DTPP and AUR treated SUM159, MDA-MB231 and HMEC Clonogenic survival. In Panel A (SUM 159), B (MDA-MB231) and C(HMEC), 150,000 cells/dish SUM159 or MDA-MB231 and 300,000 cells/dish were plated in 60 mm tissue culture dishes. After 48 hours, cells were given fresh complete HMECs media and treated with 100 μM BSO+/1 μM DTPP for 24 hours. 500 nM AUR were added 15 mins before the trypsinization of cells for clonogenic survival assay. In panel A-C, The error bars represent mean±1 SD of n=1 treatment dishes done in 3 separate experiments where each treatment dish was used to prepare 6-10 replicate cloning dishes for analysis. *p<0.001 as compared to Control. […] Mice growing Sum159 xenograft tumors were treated with 100 μM DTPP in drinking water for 2 weeks followed by i.p. injections of BSO 675 mg/kg followed in 2 hrs with Au 2.7 mg/kg. The day following injections tumors were harvested, digested and stained for ALDH positive cells. Each bar represents an average of at least three tumors. Error bars are SEM. *p<0.05 vs. control.
FIGS. 3A-3B: Clonogenic survival of SUM159 and MDA-MB231 cells treated with BSO, DTPP and AUR in the presence of 20 mM NAC. Asynchronously growing cultures of SUM159 (panel A) and MDA-MB231 (panel B) were plated as described in FIG. 1. After 48 hours, cells were given fresh complete HMECs media and treated with 100 μM BSO+/1 μM DTPP in the presence or absence of 20 mM NAC for 24 hours. 500 nM AUR were added 15 mins before the trypsinization. cells were then collected and plated for clonogenic survival. In panel A, B, The error bars represent mean±1SD of n=1 treatment dishes done in 3 separate experiments where each treatment dish was used to prepare 6-10 replicate cloning dishes for analysis. *p<0.001 as compared to W/O NAC Control. ^p<0.001 as compared to W/NAC Control.
Clonogenic cell survival: To determine whether the DTPP exposure alters the cell proliferation in MDA-MB231, SUM159 and HMECs, 150,000 cells/dish of MDA-MB231 and SUM159 cells, and 300,000 cells/dish HMECs were plated in 60 mm tissue culture dishes. After 48 hours, at 24 hours prior to each clonogenic survival experiment, media in all the dishes were changed to HMECs media and then treated with 100 μM BSO and 1 μM DTPP for 24 h. Cells were treated with AUR for 15 minutes prior to each clonogenic survival experiment. Attached and floating cells in the experimental dishes were collected after trypsinization with 1× trypsin-EDTA (CellGro, Herndon, Va., USA), centrifuged, resuspended in fresh media, and counted using a Coulter counter. Cells were re-plated using appropriate dilutions in their own media and clones were allowed to grow for 14 days in their regular growth media in the presence of 0.1% gentamycin. Cells were then fixed with 70% ethanol and stained with Coomassie blue and colonies of more than 50 cells counted and utilized to calculate clonogenic survival as described (Puck, T. T.; Morkovin, D.; Marcus, P. I.; Cieciura, S. J. Action of x-rays on mammalian cells. II. Survival curves of cells from normal human tissues. J Exp Med 106:485-500; 1957; Spitz, D. R.; Malcolm, R. R.; Roberts, R. J. Cytotoxicity and metabolism of 4-hydroxy-2-nonenal and 2-nonenal in H2O2-resistant cell lines. Do aldehydic by-products of lipid peroxidation contribute to oxidative stress? Biochem J 267:453-459; 1990). […]

[2] = test system: HMECs; test: MitoSOX red oxidation, HMEC; format: cell-based, human
Description: (§1) FIGS. 4A-4C: MitoSOX oxidation in SUM159, MDA-MB231 and HMECs cells treated with BSO, DTPP and AUR. Asynchronously growing cultures of SUM159 (Panel A) MDA-MB231 (Panel B) and HMECs (Panel C) were plated and treated as described in FIG. 1. Monolayer cultures were harvested and trypsinized, washed once with PBS and labeled 20 minutes with 2 μM MitoSOX (in 0.1% DMSO) in PBS containing 5 mM pyruvate at 37° C. Each sample was then analyzed for the Mean fluorescence Intensity (MFI) of 10,000 cells by flow cytometry. Samples were assayed in triplicate; mean±1 SD of 1 experiment containing 3 treatment dishes per group (n=3), * or ^p<0.001 as compared to Control.
(§2) MitoSOX™ red oxidation to estimate mitochondrial superoxide production: To determine if DTPP can alter steady-state levels of superoxide originating from mitochondria in SUM159, MDA-MB231 and HMEC cells, the cationic superoxide sensitive dye, MitoSOX™red (Molecular Probes), was used. Cells were plated and treated as described earlier in clonogenic survival experiment. After the exposure, cells were trypsinized and washed with 5 mM/L pyruvate containing PBS once then labeled with MitoSOX™red (2 μM, in 0.1% DMSO, 20 minutes) at 37° C. After labeling, cells were kept on ice. Samples were analyzed using a FACScan flowcytometer (Becton Dickinson Immunocytometry System, INC., Mountain View, Calif.) (excitation 488 nm, emission 585 nm band-pass filter). The mean fluorescence intensity of 10,000 cells was analyzed in each sample and corrected for autofluorescence from unlabeled cells. The MFI data was normalized to control levels.

[3] = test system: MDA-MB231 cells; test: MitoSOX red oxidation, MDA-MB231; format: cell-based, human
Description: as §1, §2

[4] = 1 μM DTPP, 100 μM BSO 24 h, 500 nM AUR 15 min

Structure (SMILES): CCCCS(=N)(=O)CCC(N)C(=O)O [BSO, L-buthionine-[S,R]-sulfoximine, reference compound]
- cytotoxicity (clonogenic survival), in words ([1]; 100 μM BSO 24 h): did not cause significantly cytotoxicity
- change in MitoSOX oxidation, in words [2]: no effects on MitoSOX oxidation
- change in MitoSOX oxidation, in words [3]: did not exhibit any change in MitoSOX oxidation

Structure (SMILES): CCCCCCCCCC[P+](c1ccccc1)(c1ccccc1)c1ccccc1 [DTPP, Decyl-Triphenylphosphonium]
- survival fraction (of control cells) in the presence of NAC ([1]; 1 μM DTPP with 20 mM NAC, 24 hrs): at least 70%
- decrease in cell survival / survival fraction compared to control ([1]; 100 μM BSO and/or 1 μM DTPP for 24 hours): 70%-80%
- clonogenic cell killing [1]: at least 70%
- increase in MitoSOX oxidation [2, 4]: 10 fold
- increase in MitoSOX red oxidation relative to control [3, 4]: 12 fold

Structure (SMILES): CC[PH](CC)(CC)[Au][S][C@@H]1O[C@H](COC(C)=O)[C@@H](OC(C)=O)[C@H](OC(C)=O)[C@H]1OC(C)=O [AUR, S-triethylphosphinegold(I)-2,3,4,6-tetra-O-acetyl-1-thio-β-D-glucopyranoside]
- clonogenic cell killing [1]: 50%-55% and 50%
- change in MitoSOX oxidation, in words [2]: no effects on MitoSOX oxidation
- change in MitoSOX oxidation, in words [3]: did not exhibit any change in MitoSOX oxidation
